According to ChEMBL document CHEMBL1201862, “PubChem BioAssay data set” (2004):
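Cultured in 96-well plates, cells were exposed to test compound for 48 hours across five concentrations. Abbreviation: GI50, concentration required for 50% inhibition of growth.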 The source made the active and inactive calls. Rule as the data show it: active = GI50 up to about 1.1 µM and inactive = higher.

Columns and labels:
Assay in all cases: inhibition of tumour cell growth, NCI panel, 48 h
BT-549 = system: BT-549
HCC 2998 = system: HCC 2998
HCT-116 = system: HCT-116
K562 = system: K562
LOX IMVI = system: LOX IMVI
MCF7 = system: MCF7
MDA-MB-435 = system: MDA-MB-435
Malme-3M = system: Malme-3M
NCI-H23 = system: NCI-H23
NCI/ADR-RES = system: NCI/ADR-RES
OVCAR-4 = system: OVCAR-4
PC-3 = system: PC-3
SK-MEL-2 = system: SK-MEL-2
SK-MEL-5 = system: SK-MEL-5
SR = system: SR
T47D = system: T47D
TK-10 = system: TK-10
U-251 = system: U-251
UACC-257 = system: UACC-257

| SMILES | GI50 (BT-549) | GI50 (HCC 2998) | GI50 (HCT-116) | GI50 (K562) | GI50 (LOX IMVI) | GI50 (MCF7) | GI50 (MDA-MB-435) | GI50 (Malme-3M) | GI50 (NCI-H23) | GI50 (NCI/ADR-RES) | GI50 (OVCAR-4) | GI50 (PC-3) | GI50 (SK-MEL-2) | GI50 (SK-MEL-5) | GI50 (SR) | GI50 (T47D) | GI50 (TK-10) | GI50 (U-251) | GI50 (UACC-257) |
| --- | --- | --- | --- | --- | --- | --- | --- | --- | --- | --- | --- | --- | --- | --- | --- | --- | --- | --- | --- |
| CCOC(=O)C1(C#N)C2(C#N)C(N)=NC(ON=C(C)C)(ON=C(C)C)C12C#N (centres undefined) | > 100 µM (inactive) | > 100 µM (inactive) | > 100 µM (inactive) | > 100 µM (inactive) | > 100 µM (inactive) | > 100 µM (inactive) | > 100 µM (inactive) | > 100 µM (inactive) | > 100 µM (inactive) | > 100 µM (inactive) | > 100 µM (inactive) | > 100 µM (inactive) | > 100 µM (inactive) | > 100 µM (inactive) | > 100 µM (inactive) | > 100 µM (inactive) | > 100 µM (inactive) | > 100 µM (inactive) | > 100 µM (inactive) |
| O=C(N/N=C/c1ccc([N+](=O)[O-])cc1)Nc1ccc(Br)cc1 | > 100 µM (inactive) | 26.5 µM (inactive) | 45.8 µM (inactive) | 54 µM (inactive) | 51.1 µM (inactive) | 34 µM (inactive) | 32.6 µM (inactive) | > 100 µM (inactive) | 47.2 µM (inactive) | 49.2 µM (inactive) | 49 µM (inactive) | > 100 µM (inactive) | > 100 µM (inactive) | 51.6 µM (inactive) | 43.2 µM (inactive) | 36.1 µM (inactive) | > 100 µM (inactive) | 69.3 µM (inactive) | > 100 µM (inactive) |
| C/C1=C/C(C)CC(C)OC(=O)C(C)NC(=O)C(Cc2ccc(O)c(I)c2)N(C)C(=O)CNC(=O)C(C)C1 (centres undefined) | < 0.01 µM (active) | < 0.01 µM (active) | < 0.01 µM (active) | < 0.01 µM (active) | < 0.01 µM (active) | 0.125 µM (active) | < 0.01 µM (active) | 0.0272 µM (active) | 0.409 µM (active) | 0.0313 µM (active) | < 0.01 µM (active) | < 0.01 µM (active) | – | < 0.01 µM (active) | < 0.01 µM (active) | 0.229 µM (active) | < 0.01 µM (active) | < 0.01 µM (active) | < 0.01 µM (active) |
| CC(=O)OCC1OC(N2C(=O)NC(=O)C3C=C4CCCCC4=CC32)CC1OC(C)=O (centres undefined) | > 100 µM (inactive) | – | > 100 µM (inactive) | > 100 µM (inactive) | > 100 µM (inactive) | > 100 µM (inactive) | > 100 µM (inactive) | > 100 µM (inactive) | – | > 100 µM (inactive) | > 100 µM (inactive) | > 100 µM (inactive) | > 100 µM (inactive) | – | > 100 µM (inactive) | > 100 µM (inactive) | > 100 µM (inactive) | > 100 µM (inactive) | > 100 µM (inactive) |
| CCOc1ccc2ccc3cccnc3c2n1 | > 100 µM (inactive) | 51.6 µM (inactive) | 34 µM (inactive) | 31.9 µM (inactive) | 49.1 µM (inactive) | 18.4 µM (inactive) | 49.3 µM (inactive) | 97.1 µM (inactive) | 61.7 µM (inactive) | 37.7 µM (inactive) | 69.2 µM (inactive) | 34.2 µM (inactive) | 81.7 µM (inactive) | 32.7 µM (inactive) | 18.9 µM (inactive) | 32.7 µM (inactive) | 34.2 µM (inactive) | 48.4 µM (inactive) | 26.9 µM (inactive) |
| CCc1n[nH]c(=O)n1CCCCCCCCn1c(CC)n[nH]c1=O | > 100 µM (inactive) | > 100 µM (inactive) | > 100 µM (inactive) | > 100 µM (inactive) | > 100 µM (inactive) | > 100 µM (inactive) | > 100 µM (inactive) | > 100 µM (inactive) | > 100 µM (inactive) | > 100 µM (inactive) | > 100 µM (inactive) | > 100 µM (inactive) | > 100 µM (inactive) | > 100 µM (inactive) | > 100 µM (inactive) | > 100 µM (inactive) | > 100 µM (inactive) | > 100 µM (inactive) | > 100 µM (inactive) |
| COc1cccc(OC)c1/C=C1\OC(=O)c2cccc(OC)c21 | 5.22 µM (inactive) | 3.16 µM (inactive) | 3.87 µM (inactive) | 0.527 µM (active) | 6.28 µM (inactive) | 3.14 µM (inactive) | 0.526 µM (active) | 3.42 µM (inactive) | 19.4 µM (inactive) | 3.51 µM (inactive) | > 30.1 µM (inactive) | 4.72 µM (inactive) | 4.14 µM (inactive) | 3.13 µM (inactive) | 0.92 µM (active) | 5.33 µM (inactive) | 11.5 µM (inactive) | 3.32 µM (inactive) | 7.43 µM (inactive) |
